Test results taken from patent US6818617B1 (Temple University- Of The Commonwealth System of Higher …, priority 1997, dated 2004).
Where two headings read alike, the source gives them in different places. Where a SMILES comes first, the peptide text is derived from it. Bridges are numbered along the chain shown (N, C = ends). Where no end group is shown, it is not given here.

What was measured:
MV3 cells = settings: immune deficient mice; cited from earlier work
αIIbβ3 [1] = target: T1, αIIbβ3 (Homo sapiens, UniProt P05106+P08514); test: ADP-induced platelet aggregation in platelet rich plasma (ADP PA); type: cell-based; set-up: endogenous in cells; host or cells: platelets in platelet rich plasma; settings: Platelets, αIIbβ3, ligand Fg, 30 μM ADP
Description: (§1) Blood from a healthy donor was collected into a syringe containing sodium citrate as an anticoagulant. The anticoagulated blood was centrifuged at 400 g for 17 minutes, and platelet rich plasma (PRP) was removed by aspiration.

α4β1 and α4β7 integrins = test: Panel of α4 integrin cell adhesion assays; type: cell-based; settings: at 10 μM
Description: (§2) Adhesion of cultured cells labeled with 5-chloromethylfluorescein diacetate (CMFDA) was performed as described earlier (Marcinkiewicz et al., Blood 90:1565-1575 (1997)). […] Wells were blocked by 1% BSA in HBSS buffer. Cells were labeled with fluorescein by incubation with 12.5 AM CMFDA in HBSS buffer containing 1% BSA at 37° C. by 15 min. Unbound label was removed by washing with the same buffer. Labeled cells (1×10^5 per sample) were added to the well in the presence or absence of inhibitors and incubated at 37° C. for 30 min. Unbound cells were removed by aspiration, the wells were washed and bound cells were lysed by adding 0.5% Triton X-100. In parallel the standard curve was prepared in the same plate from known concentrations of labelled cells. The plate was read using a Cytofluor 2350 fluorescence plate reader (Millipore, Bedford, Mass.) at 485 nm EX(excitation) filter and 530 nm (emmision) filter.
(§3) The effect of each peptide on cell adhesion was determined as described above. […] Cells that attached to the plates were lysed with detergent, and fluorescence intensity was measured. Percent inhibition was measured at each concentration and IC50 was determined.

α6β1 = target: T2, α6β1 (Homo sapiens, UniProt P05556+P23229); test: K562 (α6+) cell adhesion to laminin; type: cell-based
T2 construct: expressed in transfected cells; host or cells: K562 transfected with α6
Description: as §2, §3

α5β1 = target: T3, α5β1 (Homo sapiens, UniProt P05556+P08648); test: K562 cell adhesion to immobilized fibronectin; type: cell-based; settings: 5 μg per sample of protein from fraction
T3 construct: host or cells: K562
Description: as §2

αIIbβ3 [2] = target: T1, αIIbβ3; test: A5 (CHOαIIbβ3+) cell adhesion to immobilized fibrinogen; type: cell-based; settings: A5 (CHOαIIbβ3+) cells, ligand Fg
Description: as §2, §3

αIIbβ3, αvβ3, α5β1 = test: Panel of RGD-selective integrin assays (platelet aggregation and cell adhesion); type: cell-based; settings: range over the panel (Table 1); read-out: concentrations of potent inhibition of αIIbβ3-dependent platelet aggregation and αIIbβ3-, αvβ3-, α5β1-dependent cell adhesion
Description: as §3, §1

α4β1 [3] = target: T4, α4β1 (UniProt G3HZ55+P13612); test: A2 (CHOα4+) cell adhesion to immobilized VCAM-1; type: cell-based, human; set-up: expressed in transfected cells; host or cells: CHO (A2 cells, α4+ α5+), gift of Dr. Y. Takada; settings: A2 (CHOα4+) cells, ligand VCAM-1
Description: as §2, §3

[4] = test system: lymphocyte infiltration of pancreatic Langerhans islets; test: Lymphocyte infiltration of Langerhans islets in Non Obese Diabetic (NOD) mice; type: in vivo, mouse; settings: for effect on lymphocyte infiltration in pancreatic islets of NOD mice (in words): i.p. three times per week, nine weeks
Description: Female NOD mice from […] of age were purchased from Jackson Laboratory (Bar Harbor, Me.).
After nine weeks of treatment the animals were sacrificed by exposure to CO2. The pancreas was removed, frozen, and stored at −70° C. until the histological analysis. For the histological analysis, five μm sections of frozen tissue were fixed with acetone. For detection of infiltrating lymphocytes, the sections were stained with hematoxylin/eosin, and observed by light microscopy.

α4β7 = target: T5, α4β7 (Homo sapiens, UniProt P13612+P26010); test: RPMI 8866 cell adhesion to MadCAM-1; type: cell-based; settings: RPMI 8866 cells, α4β7, ligand MadCAM-1
T5 construct: endogenous in cells; host or cells: JY cells (A11); RPMI 8866 cells (A12)
Description: as §2, §3

α4β1 [5] = target: T4, α4β1; test: α4B2 (CHOα4+/α5−) cell adhesion to immobilized VCAM-1; type: cell-based, human; set-up: expressed in transfected cells; host or cells: B2 CHO cells (α5-deficient), gift of Dr. Y. Takada; settings: α4B2 (CHOα4+/α5−) cells, ligand VCAM-1
Description: as §2
Chinese hamster ovary cells transfected with human α4 integrin were provided by Dr. Y. Takada (Scripps Research Institute, La Jolla, Calif.). […] The bound cells were lysed with 0.5% Triton X-100, and fluorescence was measured.
as §3

α4β1 [6] = target: T6, α4β1 (Homo sapiens, UniProt P05556+P13612); test: Jurkat cell adhesion to immobilized VCAM-1; type: cell-based
T6 construct: host or cells: Jurkat
Description: as §2
The cell adhesion assay (as described in Example 1) was used to study the inhibitory effect of the eluted fractions on Jurkat cell adhesion to immobilized VCAM-1 and on K562 cell adhesion to fibronectin. Recombinant VCAM-1 (0.5 μg/well) or fibronectin (0.5 μg/well) were immobilized overnight at 4° C. on a 96-well plate (Falcon) in PBS buffer. After blocking, the CMFDA-labeled cells were added to each well in the presence of 5 μg per sample of protein from selected fractions.
Recombinant human VCAM-1 (0.5 μg/well) was immobilized in the wells of an ELISA plate overnight in PBS buffer. The plate was blocked using HBSS buffer containing 1% BSA. […] The plate was incubated for 30 minutes at 37° C. Unbound cells were removed by aspiration and the wells were washed with HBSS buffer.
as §3

αvβ3 = target: T7, αvβ3 (Homo sapiens, UniProt P05106+P06756); test: VNRC3 (CHOαvβ3+) cell adhesion to immobilized vitronectin; type: cell-based; settings: VNRC3 (CHOαvβ3+) cells, ligand Vn
T7 construct: expressed in transfected cells; host or cells: CHO (VNRC3 cells), gift of Dr. M. Ginsberg
Description: as §2, §3

Jurkat cells = test: Adhesion of Jurkat cells to immobilized EC3; type: cell-based; settings: 1 mM
Description: as §2
The adhesion study was performed using CMFDA-labeled Jurkat cells in the absence or presence 1 mM GRGDSP or GRGESP, or 10 μg/ml HP 2/1. Competition between EC3 and HP2/1 was also confirmed in cell suspension using FACS analysis. […] The experiment was performed using flow cytometry. […] The samples were fixed by addition of 1% paraformaldehyde before measurement of fluorescence intensity.

αIIbβ3 [7] = target: T1, αIIbβ3; set-up: endogenous in cells; host or cells: platelets in platelet rich plasma; settings: after reduction and ethylpyridylethylation; Calvete et al.; cited from earlier work
α4β1 (VLA-4) integrin = settings: rabbit cardiac allografts; cited from earlier work

T2 sequence (P23229 24-938 limits assumed): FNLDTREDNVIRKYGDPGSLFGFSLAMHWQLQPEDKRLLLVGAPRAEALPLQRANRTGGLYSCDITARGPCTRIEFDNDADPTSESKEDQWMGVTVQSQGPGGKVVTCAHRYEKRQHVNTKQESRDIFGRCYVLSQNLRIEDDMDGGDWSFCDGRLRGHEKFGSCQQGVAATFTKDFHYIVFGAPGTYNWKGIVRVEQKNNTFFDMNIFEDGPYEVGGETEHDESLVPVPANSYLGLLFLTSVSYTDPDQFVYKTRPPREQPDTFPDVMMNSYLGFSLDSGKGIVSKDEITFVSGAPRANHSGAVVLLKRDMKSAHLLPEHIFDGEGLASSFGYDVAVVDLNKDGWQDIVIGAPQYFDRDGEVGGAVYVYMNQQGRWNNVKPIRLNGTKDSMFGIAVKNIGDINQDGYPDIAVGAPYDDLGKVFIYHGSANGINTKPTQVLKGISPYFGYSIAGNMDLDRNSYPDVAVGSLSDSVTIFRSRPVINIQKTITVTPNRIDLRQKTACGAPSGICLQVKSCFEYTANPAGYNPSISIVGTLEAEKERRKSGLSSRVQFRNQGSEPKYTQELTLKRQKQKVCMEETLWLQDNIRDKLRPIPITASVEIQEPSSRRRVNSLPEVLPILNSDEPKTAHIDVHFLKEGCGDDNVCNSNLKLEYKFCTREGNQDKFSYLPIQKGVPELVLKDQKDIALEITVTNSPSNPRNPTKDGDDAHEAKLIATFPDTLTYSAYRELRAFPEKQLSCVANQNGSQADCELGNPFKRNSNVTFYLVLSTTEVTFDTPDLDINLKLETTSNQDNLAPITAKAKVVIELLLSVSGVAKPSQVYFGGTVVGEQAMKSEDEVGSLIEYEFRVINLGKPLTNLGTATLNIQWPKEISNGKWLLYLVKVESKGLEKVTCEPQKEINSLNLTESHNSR
T2 sequence (P23229 942-1130 partner limits assumed): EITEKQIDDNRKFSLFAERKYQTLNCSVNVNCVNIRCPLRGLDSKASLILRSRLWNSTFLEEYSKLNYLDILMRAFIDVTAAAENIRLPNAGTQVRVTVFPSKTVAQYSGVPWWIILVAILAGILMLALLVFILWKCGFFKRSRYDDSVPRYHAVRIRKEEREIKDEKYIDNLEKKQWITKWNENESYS
T2 sequence (P05556 21-798): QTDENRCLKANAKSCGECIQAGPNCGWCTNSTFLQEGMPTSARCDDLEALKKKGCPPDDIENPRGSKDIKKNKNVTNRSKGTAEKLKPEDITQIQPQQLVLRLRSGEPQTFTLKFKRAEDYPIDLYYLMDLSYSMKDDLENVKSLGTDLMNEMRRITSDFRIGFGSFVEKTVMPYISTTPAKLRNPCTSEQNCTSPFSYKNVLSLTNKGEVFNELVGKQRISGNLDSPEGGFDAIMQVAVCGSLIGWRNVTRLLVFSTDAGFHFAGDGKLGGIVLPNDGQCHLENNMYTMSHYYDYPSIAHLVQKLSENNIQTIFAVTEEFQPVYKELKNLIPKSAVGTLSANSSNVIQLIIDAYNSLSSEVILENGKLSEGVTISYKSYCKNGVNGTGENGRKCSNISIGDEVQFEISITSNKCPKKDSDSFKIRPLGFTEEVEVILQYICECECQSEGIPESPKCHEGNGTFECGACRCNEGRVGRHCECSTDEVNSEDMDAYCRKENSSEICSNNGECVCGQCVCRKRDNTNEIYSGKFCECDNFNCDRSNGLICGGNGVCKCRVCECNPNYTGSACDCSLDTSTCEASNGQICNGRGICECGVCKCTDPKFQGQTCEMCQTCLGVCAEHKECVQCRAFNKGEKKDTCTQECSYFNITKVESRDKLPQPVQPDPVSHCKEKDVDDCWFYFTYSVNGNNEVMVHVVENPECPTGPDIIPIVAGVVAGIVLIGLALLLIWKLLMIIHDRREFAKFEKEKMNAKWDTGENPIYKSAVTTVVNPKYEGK
T3 sequence (P08648 42-894 limits assumed): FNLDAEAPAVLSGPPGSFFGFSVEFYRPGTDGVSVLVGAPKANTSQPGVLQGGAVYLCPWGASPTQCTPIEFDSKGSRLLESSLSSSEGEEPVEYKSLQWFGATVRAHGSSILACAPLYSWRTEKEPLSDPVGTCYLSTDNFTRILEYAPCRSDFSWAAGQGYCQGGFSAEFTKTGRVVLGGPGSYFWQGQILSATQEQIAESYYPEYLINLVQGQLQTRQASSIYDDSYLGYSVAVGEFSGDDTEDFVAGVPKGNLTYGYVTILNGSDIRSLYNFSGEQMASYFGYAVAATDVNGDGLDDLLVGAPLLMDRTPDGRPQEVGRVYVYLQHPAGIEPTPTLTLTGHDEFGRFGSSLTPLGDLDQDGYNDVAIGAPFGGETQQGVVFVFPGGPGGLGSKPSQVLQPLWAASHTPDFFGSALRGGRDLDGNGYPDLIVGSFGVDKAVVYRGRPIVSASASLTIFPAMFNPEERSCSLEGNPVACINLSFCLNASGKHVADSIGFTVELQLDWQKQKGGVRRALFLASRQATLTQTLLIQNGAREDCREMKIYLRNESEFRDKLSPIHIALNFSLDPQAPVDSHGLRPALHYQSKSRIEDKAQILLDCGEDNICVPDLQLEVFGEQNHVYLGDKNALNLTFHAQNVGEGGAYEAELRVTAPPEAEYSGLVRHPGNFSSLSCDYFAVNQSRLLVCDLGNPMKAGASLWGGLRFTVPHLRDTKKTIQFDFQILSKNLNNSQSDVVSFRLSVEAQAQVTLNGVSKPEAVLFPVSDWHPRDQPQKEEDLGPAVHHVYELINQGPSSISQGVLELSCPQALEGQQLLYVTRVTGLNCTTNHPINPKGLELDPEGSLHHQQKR
T3 sequence (P08648 895-1049 partner limits assumed): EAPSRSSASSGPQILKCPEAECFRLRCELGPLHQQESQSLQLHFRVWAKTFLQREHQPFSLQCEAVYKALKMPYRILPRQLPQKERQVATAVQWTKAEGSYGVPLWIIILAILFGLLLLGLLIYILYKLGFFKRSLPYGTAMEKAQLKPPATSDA
T3 sequence (P05556 21-798): as the sequence (P05556 21-798) above
T7 sequence (P06756 31-889 limits assumed): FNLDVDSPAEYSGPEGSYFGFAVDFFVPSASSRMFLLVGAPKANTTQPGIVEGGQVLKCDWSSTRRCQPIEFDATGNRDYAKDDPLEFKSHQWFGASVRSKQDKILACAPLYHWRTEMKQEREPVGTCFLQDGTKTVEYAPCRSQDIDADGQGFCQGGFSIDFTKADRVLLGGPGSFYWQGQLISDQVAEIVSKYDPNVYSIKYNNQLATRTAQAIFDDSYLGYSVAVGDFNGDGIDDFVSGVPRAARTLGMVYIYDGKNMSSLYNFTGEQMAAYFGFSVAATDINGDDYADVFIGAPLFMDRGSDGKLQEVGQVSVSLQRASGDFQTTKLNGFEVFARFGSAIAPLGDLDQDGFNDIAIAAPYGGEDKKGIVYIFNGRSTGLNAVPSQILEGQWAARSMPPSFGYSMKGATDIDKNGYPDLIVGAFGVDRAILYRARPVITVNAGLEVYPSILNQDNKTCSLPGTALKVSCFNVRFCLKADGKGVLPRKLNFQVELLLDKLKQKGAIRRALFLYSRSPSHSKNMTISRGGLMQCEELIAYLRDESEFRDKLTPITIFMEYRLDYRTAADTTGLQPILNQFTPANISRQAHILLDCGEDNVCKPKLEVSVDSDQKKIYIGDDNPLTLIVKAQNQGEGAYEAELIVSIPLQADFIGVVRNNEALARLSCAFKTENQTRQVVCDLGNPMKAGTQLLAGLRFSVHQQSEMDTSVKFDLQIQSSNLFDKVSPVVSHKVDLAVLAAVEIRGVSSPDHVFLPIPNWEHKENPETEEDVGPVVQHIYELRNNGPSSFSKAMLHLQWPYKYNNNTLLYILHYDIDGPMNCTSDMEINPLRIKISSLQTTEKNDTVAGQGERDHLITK
T7 sequence (P06756 891-1048 partner limits assumed): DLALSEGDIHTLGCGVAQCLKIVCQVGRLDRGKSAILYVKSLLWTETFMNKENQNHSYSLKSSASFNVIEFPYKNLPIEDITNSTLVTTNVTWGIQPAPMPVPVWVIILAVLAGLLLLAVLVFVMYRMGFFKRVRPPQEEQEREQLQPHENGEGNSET
T7 sequence (P05106 27-788): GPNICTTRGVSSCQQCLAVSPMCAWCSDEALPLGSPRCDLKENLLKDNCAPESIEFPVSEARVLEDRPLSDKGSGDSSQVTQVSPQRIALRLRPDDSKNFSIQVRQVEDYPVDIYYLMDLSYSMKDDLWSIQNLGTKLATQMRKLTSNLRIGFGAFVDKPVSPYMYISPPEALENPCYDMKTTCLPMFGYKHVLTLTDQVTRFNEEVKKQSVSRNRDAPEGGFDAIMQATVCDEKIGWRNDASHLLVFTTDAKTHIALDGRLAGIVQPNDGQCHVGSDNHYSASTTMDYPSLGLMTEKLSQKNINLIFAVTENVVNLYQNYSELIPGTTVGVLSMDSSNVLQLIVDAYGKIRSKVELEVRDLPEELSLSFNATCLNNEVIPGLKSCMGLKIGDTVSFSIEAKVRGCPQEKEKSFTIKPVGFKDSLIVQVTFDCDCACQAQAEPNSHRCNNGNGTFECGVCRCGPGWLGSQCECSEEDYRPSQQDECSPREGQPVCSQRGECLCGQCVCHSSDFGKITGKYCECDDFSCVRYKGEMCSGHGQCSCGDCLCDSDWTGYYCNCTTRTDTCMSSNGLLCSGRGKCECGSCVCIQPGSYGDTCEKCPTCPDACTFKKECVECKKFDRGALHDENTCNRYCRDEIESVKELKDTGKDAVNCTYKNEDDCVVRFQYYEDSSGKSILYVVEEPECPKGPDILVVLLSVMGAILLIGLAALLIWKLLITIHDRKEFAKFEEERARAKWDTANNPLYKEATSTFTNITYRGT

For “eristostatin: short disintegrin, potent inhibitor of αIIbβ3, SEQ ID NO:8 (QEEPCATGPCCRRCKFKRAGKVCRVARGDWNDDYCTGKSCDCPRNPWNG; ends and bridges not checked; cysteine pairing not given here; listed as Eristocophis macmahonii)”, the “effect on human melanoma cell (MV3) metastases” value (MV3 cells) is listed as “inhibits human melanoma cell (MV3) metastases”.

With “Echistatin (ECESGPCCRNCKFLKEGTICKRARGDDMDDYCNGKTCDCPRNPHKGPAT) [reference compound]” the IC50 (αIIbβ3 [1]) was 0.13 µM, the “activity in α4 integrin cell adhesion assays” value (α4β1 and α4β7 integrins) was “no detectable activity” and the IC50 (α6β1; K562 (α6+) cells, α6β1, ligand Lm) was over 10 µM. For the same compound, the “inhibition of adhesion to laminin of K562 cells transfected with α6” value (α6β1; at concentration 10 μM) was “neither echistatin nor EC3 inhibited”, the “inhibition of binding of K562 cells to immobilized fibronectin” value (α5β1) was “inhibited binding” and the IC50 (αIIbβ3 [2]) was 0.05 µM. The IC50 (αIIbβ3, αvβ3, α5β1) was 0.02 to 0.13 µM, the IC50 (α4β1 [3]) was over 10 µM and the “Number of Islets, Infiltration Score ++” value ([4]; ++ = ⅓ of the islet infiltrated, of 27 (echistatin) or 29 (EC-3) islets, nine weeks i.p.) was 10. The “Number of Islets, Infiltration Score +++” value ([4]; +++ = ½ or more of the islet infiltrated, of 27 (echistatin) or 29 (EC-3) islets, nine weeks i.p.) was 10, the “Number of Animals without infiltration” value ([4]; NOD mice, i.p. three times per week for nine weeks, echistatin 1 μg/mouse, EC-3 3 μg/mouse, 10 animals per group) was 0 and the “effect on lymphocyte infiltration in pancreatic islets of NOD mice (in words)” value ([4]; echistatin 1 μg/mouse, EC-3 3 μg/mouse) was “inactive”. The “effect on lymphocyte infiltration in pancreatic islets of NOD mice (in words)” value ([4]; echistatin 1 μg/mouse, EC-3 3 μg/mouse, listed as echistatin) was “ineffective”, the “Number of Islets, Infiltration Score −” value ([4]; − = no infiltration, of 27 (echistatin) or 29 (EC-3) islets, nine weeks i.p.) was 5 and the IC50 (α4β7) was over 10 µM. It also gave an IC50 (α4β1 [5]) of over 10 µM, an IC50 (α4β1 [6]; Jurkat cells, ligand VCAM-1, read-out: IC50, cell adhesion) of over 10 µM and an IC50 (αvβ3) of 0.05 µM.

With GRGDSP the “effect on adhesion of Jurkat cells to immobilized EC3” value (Jurkat cells) was “not effective”.

For “flavoridin: medium size disintegrin, SEQ ID NO:10”, the “decrease of ability to inhibit ADP-induced platelet aggregation” value (αIIbβ3 [7]) is listed as about 40 fold.

For “phenylacetic acid-Leu-Asp-Phe-d-Pro-amide [CS-1 peptide]”, the “effect on accelerated coronary arteriopathy” value (α4β1 (VLA-4) integrin) is listed as “reduces accelerated coronary arteriopathy”.

For CKRAMLA^7GLNDYC, the “inhibition of Jurkat cell adhesion to immobilized VCAM-1 (in words)” value (α4β1 [6]) was “no significant activity”.

In the case of RGDS [reference compound], the “inhibition of Jurkat cell adhesion to immobilized VCAM-1” value (α4β1 [6]; at this concentration (5 mM)) is reported as “inactive”.

For `CSCC[C@@H]1NC(=O)[C@H](C)NC(=O)[C@H](CCCNC(=N)N)NC(=O)[C@H](CCCCN)NC(=O)[C@@H](N)CSSC[C@@H](C(=O)O)NC(=O)[C@H](Cc2ccc(O)cc2)NC(=O)[C@H](CC(=O)O)NC(=O)[C@H](CC(N)=O)NC(=O)[C@H](CC(C)C)NC(=O)CNC(=O)[C@H](CC(=O)O)NC(=O)[C@H](CC(C)C)NC1=O` (H-CKRAMLDGLNDYC-OH; disulfide 1-13), the IC50 (α4β1 [6]) was 1000 µM and the “activity relative to MLDG in molar ratio” value (α4β1 [6]; Jurkat cells / VCAM-1) was “five fold more active”.
